PubChem BioAssay AID1963960 (Molecular Pharmacology Branch, DTP, NCI, 2024)

Test system: MDA-MB-468 spheroids with HUVEC/MSC, viability
Assay: Anticancer human tumor MDA-MB-468 cell line growth inhibition [PI3K];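 further: spheroids exposed to agents for seven days before readout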;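 on viability, T/C: 100% = DMSO vehicle control viability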
Settings: for IC50: curve of first compound; for viability, T/C: stronger effect = lower value
Excerpt: Combinatorial screen of targeted agents with the PI3K inhibitors inavolisib, alpelisib, duvelisib, and copanlisib in multi-cell type tumor spheroids
A high-throughput screen of multi-cell type tumor spheroids was designed to identify active combinations of targeted small molecules and PI3K pathway inhibitors. Complex spheroids include a stromal component modeled by human endothelial cells (HUVEC) and fibroblasts modeled by human mesenchymal stem cells (MSCs). The concentration ranges selected for each drug and investigational agent were based upon clinically achievable concentrations if the clinical Cmax of the agent was known.
Compounds. The drugs and investigational agents: inavolisib (NSC800729), alpelisib (NSC765974), duvelisib (NSC772469), copanlisib (NSC816437), ipatasertib (NSC767898), afuresertib (NSC778305), talazoparib (NSC767125), sapanisertib (NSC764658), selumetinib (NSC741078), tovorafenib (DAY101, NSC766906), vemurafenib (NSC761431), ravoxertinib (NSC781343), sotorasib (NSC818433), MRTX1133 (NSC 836407), abemaciclib (NSC 768073), palbociclib (NSC758247), venetoclax (NSC 766270), SY5609 (NSC837396), enzalutamide (NSC755605), and darolutamide (NSC825331), were obtained from the National Cancer Institute (NCI) Developmental Therapeutics Program Chemical Repository. The FDA-approved anticancer drug set is available from the NCI Developmental Therapeutics Program. […] The stock solutions were prepared in dimethyl sulfoxide (DMSO, Sigma-Aldrich, St. Louis, MO, cat. D2650) at 800-fold the tested concentration and stored at -70 degrees C prior to their use. All drugs and investigational agents were tested over a range starting from a high concentration at or near the clinical Cmax and decreasing in half-log increments. If the clinical Cmax for an agent had not been determined, the highest concentration tested was 10 microM.
Cell Culture. All cells were maintained in an incubator at 37 degrees C and 5% CO2 with 95% humidity. The PDC lines were cultured according to standard operating procedures established by the NCI PDMR (https://pdmr.cancer.gov/sops/default.htm). All PDCs were thawed and cultured in Matrigel-coated flasks prepared with a working solution of 1X Ham's F-12 nutrient mix, without supplementation (Invitrogen, Waltham, MA, cat. 11765054), 100 U/mL penicillin-streptomycin (Invitrogen, cat. 15140122), and 2.5% Matrigel (Corning Inc., Corning, NY, cat. 354248) for the first three passages. The 354836-022-R-J1-PDC, 475296-252-R-J1-PDC, and 997726-040-R-J2-PDC lines were cultured in 6A media, which includes advanced DMEM/F-12 (Thermo Fisher Scientific, cat. 12634028), 10 mM HEPES (Thermo Fisher Scientific, cat. 15630080), 1X GlutaMAX supplement (Thermo Fisher Scientific, cat. 35050061), 0.1 mg/mL primocin (InvivoGen, San Diego, CA, cat. ant-pm-2), 10% defined fetal bovine serum, heat inactivated (HyClone Laboratories Inc., Logan, UT, cat. SH30070.03HI), 50% L-WRN conditioned media (ATCC, cat. CRL-3276), 1.25 mM N-Acetyl-L-cysteine (Sigma-Aldrich, cat. A9165), 10 mM nicotinamide (Sigma-Aldrich, cat. N0636), 1X B-27 supplement (Thermo Fisher Scientific, cat. 17504044), 1X N-2 supplement (Thermo Fisher Scientific, cat. 17502048), and 10 microM Y-27632 dihydrochloride (Tocris Bioscience, Bristol, United Kingdom, cat. 1254). The 624824-186-R-J2-PDC line was cultured in 6C/Colon 1B media, which includes all 6A media components plus 50 ng/mL human EGF recombinant protein (Thermo Fisher Scientific, cat. PHG0311). […]

[1] = second compound 0.00316 µM, first compound 0.0316 µM
[2] = second compound 0.00316 µM, first compound 0.1 µM
[3] = second compound 0.01 µM, first compound 0.0316 µM
[4] = second compound 0.01 µM, first compound 0.1 µM
[5] = second compound 0.0316 µM, first compound 0.0316 µM
[6] = second compound 0.0316 µM, first compound 0.1 µM
[7] = second compound 0.1 µM, first compound 0.0316 µM
[8] = second compound 0.1 µM, first compound 0.1 µM
[9] = second compound 0.316 µM, first compound 0.0316 µM
[10] = second compound 0.316 µM, first compound 0.1 µM
[11] = second compound 1 µM, first compound 0.0316 µM
[12] = second compound 1 µM, first compound 0.1 µM

CC(=O)c1c(C)c2cnc(Nc3ccc(N4CCNCC4)cn3)nc2n(C2CCCC2)c1=O + CC(Nc1ccc2c(c1)OCCn1cc(N3C(=O)OCC3C(F)F)nc1-2)C(N)=O
IC50 (second compound 0.00316 µM): > 0.1 µM | IC50 (second compound 0.01 µM): > 0.1 µM | IC50 (second compound 0.0316 µM): > 0.1 µM | IC50 (second compound 0.1 µM): > 0.1 µM | IC50 (second compound 0.316 µM): > 0.1 µM | IC50 (second compound 1 µM): > 0.1 µM | viability, T/C (second compound 0.00316 µM, first compound 0.000316 µM): 96.1% | viability, T/C (second compound 0.00316 µM, first compound 0.001 µM): 95.3% | viability, T/C (second compound 0.00316 µM, first compound 0.00316 µM): 96.8% | viability, T/C (second compound 0.00316 µM, first compound 0.01 µM): 102% | viability, T/C [1]: 97.4% | viability, T/C [2]: 89.9% | viability, T/C (second compound 0.01 µM, first compound 0.000316 µM): 105% | viability, T/C (second compound 0.01 µM, first compound 0.001 µM): 91% | viability, T/C (second compound 0.01 µM, first compound 0.00316 µM): 93.6% | viability, T/C (second compound 0.01 µM, first compound 0.01 µM): 110% | viability, T/C [3]: 105% | viability, T/C [4]: 97.1% | viability, T/C (second compound 0.0316 µM, first compound 0.000316 µM): 103% | viability, T/C (second compound 0.0316 µM, first compound 0.001 µM): 92.7% | viability, T/C (second compound 0.0316 µM, first compound 0.00316 µM): 89% | viability, T/C (second compound 0.0316 µM, first compound 0.01 µM): 89% | viability, T/C [5]: 97% | viability, T/C [6]: 79.3% | viability, T/C (second compound 0.1 µM, first compound 0.000316 µM): 86.5% | viability, T/C (second compound 0.1 µM, first compound 0.001 µM): 84.8% | viability, T/C (second compound 0.1 µM, first compound 0.00316 µM): 101% | viability, T/C (second compound 0.1 µM, first compound 0.01 µM): 88.4% | viability, T/C [7]: 96% | viability, T/C [8]: 89.2% | viability, T/C (second compound 0.316 µM, first compound 0.000316 µM): 89.5% | viability, T/C (second compound 0.316 µM, first compound 0.001 µM): 72.1% | viability, T/C (second compound 0.316 µM, first compound 0.00316 µM): 79.1% | viability, T/C (second compound 0.316 µM, first compound 0.01 µM): 87.5% | viability, T/C [9]: 83.8% | viability, T/C [10]: 84.1% | viability, T/C (second compound 1 µM, first compound 0.000316 µM): 84.1% | viability, T/C (second compound 1 µM, first compound 0.001 µM): 81.6% | viability, T/C (second compound 1 µM, first compound 0.00316 µM): 73% | viability, T/C (second compound 1 µM, first compound 0.01 µM): 90.6% | viability, T/C [11]: 66.7% | viability, T/C [12]: 82%

CCCS(=O)(=O)Nc1ccc(F)c(C(=O)c2c[nH]c3ncc(-c4ccc(Cl)cc4)cc23)c1F + CC(Nc1ccc2c(c1)OCCn1cc(N3C(=O)OCC3C(F)F)nc1-2)C(N)=O
IC50 (second compound 0.00316 µM): 5.33 µM | IC50 (second compound 0.01 µM): 5.16 µM | IC50 (second compound 0.0316 µM): 5.07 µM | IC50 (second compound 0.1 µM): 4.53 µM | IC50 (second compound 0.316 µM): 3.62 µM | IC50 (second compound 1 µM): 3.72 µM | viability, T/C [1]: 89.1% | viability, T/C [2]: 114% | viability, T/C (second compound 0.00316 µM, first compound 0.316 µM): 100% | viability, T/C (second compound 0.00316 µM, first compound 1 µM): 94.4% | viability, T/C (second compound 0.00316 µM, first compound 3.16 µM): 78.9% | viability, T/C (second compound 0.00316 µM, first compound 10 µM): 15.6% | viability, T/C [3]: 101% | viability, T/C [4]: 90% | viability, T/C (second compound 0.01 µM, first compound 0.316 µM): 90.6% | viability, T/C (second compound 0.01 µM, first compound 1 µM): 104% | viability, T/C (second compound 0.01 µM, first compound 3.16 µM): 74.8% | viability, T/C (second compound 0.01 µM, first compound 10 µM): 16.4% | viability, T/C [5]: 106% | viability, T/C [6]: 98.7% | viability, T/C (second compound 0.0316 µM, first compound 0.316 µM): 86.8% | viability, T/C (second compound 0.0316 µM, first compound 1 µM): 103% | viability, T/C (second compound 0.0316 µM, first compound 3.16 µM): 74.8% | viability, T/C (second compound 0.0316 µM, first compound 10 µM): 14.2% | viability, T/C [7]: 95.4% | viability, T/C [8]: 90.6% | viability, T/C (second compound 0.1 µM, first compound 0.316 µM): 85.6% | viability, T/C (second compound 0.1 µM, first compound 1 µM): 94.5% | viability, T/C (second compound 0.1 µM, first compound 3.16 µM): 66.2% | viability, T/C (second compound 0.1 µM, first compound 10 µM): 14.5% | viability, T/C [9]: 95.6% | viability, T/C [10]: 89.1% | viability, T/C (second compound 0.316 µM, first compound 0.316 µM): 79.2% | viability, T/C (second compound 0.316 µM, first compound 1 µM): 94.1% | viability, T/C (second compound 0.316 µM, first compound 3.16 µM): 55% | viability, T/C (second compound 0.316 µM, first compound 10 µM): 12.1% | viability, T/C [11]: 85.3% | viability, T/C [12]: 88.3% | viability, T/C (second compound 1 µM, first compound 0.316 µM): 78.7% | viability, T/C (second compound 1 µM, first compound 1 µM): 67.2% | viability, T/C (second compound 1 µM, first compound 3.16 µM): 61.4% | viability, T/C (second compound 1 µM, first compound 10 µM): 11%
